For data set [1], the system named is RAW264.7. The experiment in a line: Inhibition of LPS-induced NO production in mouse RAW264.7 cells pretreated for 30 mins followed by LPS challenge measured after 24 hrs by Griess assay. The format is functional, cell-based. (In general: Griess reagent forms a coloured azo dye with nitrite.)
The test system of data set [2] is RAW264.7. The experiment in a line: Cytotoxicity against mouse RAW264.7 cells by MTT assay. The data set is classed as cell-based.
The subject of data set [3] is RAW264.7. The experiment in a line: Inhibition of LPS-induced NO production in mouse RAW264.7 cells pretreated for 30 mins followed by LPS challenge measured after 12 hrs by Griess assay. The format is functional, cell-based.

What is called IC50 is the concentration needed to halve the response being measured. Turning to `COC(=O)[C@H]1O[C@@H](O[C@H]2CC[C@]3(C)[C@H]4CC=C5[C@@H]6CC(C)(C)CC[C@]6(CO)[C@H](O)C[C@@]5(C)[C@]4(C)CC[C@H]3C2(C)C)[C@H](O[C@@H]2O[C@@H](C)[C@H](O)[C@@H](O)[C@H]2O)[C@@H](O)[C@@H]1O`, in the data set with RAW264.7 [1], the IC50 was found to be 49.4 µM. Further, the Activity entry with RAW264.7 [2] is on record as “Non-Toxic”.
Consider `COc1cc(O)cc(O)c1C(=O)/C=C/c1ccccc1` [CARDAMOMIN], for which the concentration for half-maximal inhibition (IC50) in the data set on RAW264.7 [3] is 2.2 µM.

The record behind these values is ChEMBL document CHEMBL4000198, “Triterpene saponins and megastigmane glucosides from Camellia bugiamapensis” (Bioorg Med Chem Lett, 2017).
